# Reference: patent publication US5736510A, “Antibiotics 10381v, w, x,y, z1, z2, pre-b and t” (priority 1996, dated 1998)
# Entries after “also recorded” stand apart in the source; their conditions may differ. Read-outs that look alike come from different tables or passages of the source.
# What was measured:
# Format in all cases: cell-based
# B. fragilis = conditions: strain UC9370; for Minimal Inhibitory Concentration (bioactivity data): Table IV (separate study)
# F. necrophorum = conditions: for Minimal Inhibitory Concentration (bioactivity data): Table IV (separate study); for M.I.C.: Table III, mass basis, no correction for purity
# S. ruminantium = conditions: for Minimal Inhibitory Concentration (bioactivity data): Table IV (separate study); for M.I.C.: Table III, mass basis, no correction for purity
# B. thetaiotaomicron = conditions: strain UC9014; for Minimal Inhibitory Concentration (bioactivity data): Table IV (separate study)
# Method: (§1) The assay measures the ability of a compound to inhibit the growth of certain types of anaerobic bacteria which normally inhabit the gut of poultry, swine or cattle.
# (§2) Two mg/ml solutions of the drugs to be tested are made in 10% v/v ethanol/water. This stock is then diluted to one mg per ml and then further diluted through a series of ten-two fold dilutions. At each concentration an aliquot is placed in a sterile petri plate. Nine volumes of molten agar are then added to each plate, mixed and allowed to harden at room temperature. These plates are then transferred to a Coy chamber and allowed to dry and equilibrate with the oxygen free atmosphere.
# (§3) Organisms used for MIC testing are inoculated into broth media, and incubated 18-24 h at 39° C. prior to use. The cultures are then diluted to equal the turbidity of a 0.5 MacFarland barium sulfate standard, except for the porcine isolates P108-3C1, P105-1C3 and P105-1C4 which are diluted 1:1. All inoculations and dilutions are performed in the anaerobic chamber using broth media and syringe transfer through the butyl robber stoppers.
# (§4) Freshly prepared and diluted cultures are loaded into the wells of a Steers replicator device. This apparatus can dispense ca 10 μl of each of 32 cultures onto the surface of the preincubated agar plates. One hour after the inoculation, the inoculum will have been absorbed and the plates are inverted and incubated at 38°-39° C. for 48 h. Plates are then removed from the chamber and the MIC for the test compounds determined. MIC's are reported as the lowest concentration of a compound which prevented detectable growth of a test organism on the agar plates. […] Thus, each set of test plates yields individual MIC values for each of the 32 test organisms.
# C. perfringens = system: C. perfringens; set-up: Minimal Inhibitory Concentration (bioactivity data): unit not given here; conditions: for Minimal Inhibitory Concentration (bioactivity data): Table IV (separate study); for M.I.C.: Table III, mass basis, no correction for purity
# S. faecalis = conditions: for Minimal Inhibitory Concentration (bioactivity data): Table IV (separate study); for M.I.C.: Table III, mass basis, no correction for purity
# E. lentum = conditions: strain L-34; Table IV (separate study)
# L. multiparus = conditions: strain 40; for Minimal Inhibitory Concentration (bioactivity data): Table IV (separate study)
# B. fibrisolvens = conditions: for Minimal Inhibitory Concentration (bioactivity data): Table IV (separate study); for M.I.C.: Table III, mass basis, no correction for purity
# R. flavefaciens = conditions: for Minimal Inhibitory Concentration (bioactivity data): Table IV (separate study); for M.I.C.: Table III, mass basis, no correction for purity
# S. bovis = conditions: strain JB1; for Minimal Inhibitory Concentration (bioactivity data): Table IV (separate study)
# M. elsdenii = conditions: strain B159; for Minimal Inhibitory Concentration (bioactivity data): Table IV (separate study)
# R. amylophilus = conditions: strain H18; for Minimal Inhibitory Concentration (bioactivity data): Table IV (separate study)
# E. ruminantium = conditions: strain GA195; for Minimal Inhibitory Concentration (bioactivity data): Table IV (separate study)
# [1] = system: anaerobic bacteria which normally inhabit the gut of poultry, swine or cattle; assay: in vitro MIC assay, overall comparison of components across the test organisms; conditions: for in vitro activity ranking of the individual components: conclusion from Tables III and IV
# Method: as §1, §2, §3, §4
# S. hyodysenteriae = system: S. hyodysenteriae; set-up: unit not given here; conditions: Table IV (separate study)
# Method: as §1, §2, §3, §4
# P. ruminicola = conditions: strain 118B; for Minimal Inhibitory Concentration (bioactivity data): Table IV (separate study)
# [2] = Table III, mass basis, no correction for purity
smiles,measurement,setting,value
C=C(NC(=O)c1ccc2c(n1)-c1nc(oc1C)C(C)NC(=O)c1csc(n1)C(C)NC(=O)c1nc(oc1C)CNC(=O)C(C(C)C)NC(=O)c1csc-2n1)C(N)=O (stereo not shown) [Antibiotic 10381w],Minimal Inhibitory Concentration (bioactivity data),B. fragilis,> 100
same,Minimal Inhibitory Concentration (bioactivity data),F. necrophorum; strain FN4070,> 100
same,Minimal Inhibitory Concentration (bioactivity data),F. necrophorum; strain FN5052,> 100
same,Minimal Inhibitory Concentration (bioactivity data),S. ruminantium; strain GA31,1.6
same,Minimal Inhibitory Concentration (bioactivity data),S. ruminantium; strain GA192,12.5
same,Minimal Inhibitory Concentration (bioactivity data),B. thetaiotaomicron,> 100
same,Minimal Inhibitory Concentration (bioactivity data),C. perfringens; strain A82-1,> 100
same,Minimal Inhibitory Concentration (bioactivity data),C. perfringens; strain A83-3,12.5
same,Minimal Inhibitory Concentration (bioactivity data),C. perfringens; strain A83-RKP,> 100
same,Minimal Inhibitory Concentration (bioactivity data),C. perfringens; strain CCS2-09,> 100
same,Minimal Inhibitory Concentration (bioactivity data),C. perfringens; strain P1051C3,> 100
same,Minimal Inhibitory Concentration (bioactivity data),C. perfringens; strain P1083C1,> 100
same,Minimal Inhibitory Concentration (bioactivity data),C. perfringens; strain RF1B04,100
same,Minimal Inhibitory Concentration (bioactivity data),C. perfringens; strain UC9452,> 100
same,Minimal Inhibitory Concentration (bioactivity data),S. faecalis; strain 71A01,> 100
same,Minimal Inhibitory Concentration (bioactivity data),S. faecalis; strain CCS1-03,> 100
same,Minimal Inhibitory Concentration (bioactivity data),S. faecalis; strain P1051C4,> 100
same,Minimal Inhibitory Concentration (bioactivity data),E. lentum,25.0
same,Minimal Inhibitory Concentration (bioactivity data),L. multiparus,> 100
same,Minimal Inhibitory Concentration (bioactivity data),B. fibrisolvens; strain 49,> 100
same,Minimal Inhibitory Concentration (bioactivity data),B. fibrisolvens; strain D1,> 100
same,Minimal Inhibitory Concentration (bioactivity data),R. flavefaciens; strain C94,100
same,Minimal Inhibitory Concentration (bioactivity data),R. flavefaciens; strain FD1,> 100
same,Minimal Inhibitory Concentration (bioactivity data),S. bovis,> 100
same,Minimal Inhibitory Concentration (bioactivity data),M. elsdenii,> 100
same,Minimal Inhibitory Concentration (bioactivity data),R. amylophilus,> 100
same,Minimal Inhibitory Concentration (bioactivity data),E. ruminantium,25
same,in vitro activity ranking of the individual components,[1],considerably less active
same,Minimal Inhibitory Concentration (bioactivity data),S. hyodysenteriae; strain 16-4,> 100
same,Minimal Inhibitory Concentration (bioactivity data),S. hyodysenteriae; strain B204,> 100
same,Minimal Inhibitory Concentration (bioactivity data),P. ruminicola,< 0.2
"C=C(NC(=O)c1ccc2c(n1)-c1coc(n1)C(=C)NC(=O)C(=C)NC(=O)c1nc(oc1C)C(=CC)NC(=O)c1csc(n1)C(OC)NC(=O)c1nc(oc1C)C(=CC(C)O)NC(=O)C(C(C)O)NC(=O)c1csc-2n1)C(N)=O (stereo not shown) [Antibiotic 10381y, 52-de[1-[[[1-(aminocarbonyl)ethenyl]amino]carbonyl]ethenyl]-sulfomycin I]",M.I.C.,B. fragilis; [2],1.6 µg/mL
same,Minimal Inhibitory Concentration (bioactivity data),B. fragilis,50.0
same,M.I.C.,F. necrophorum; strain FN4070,25.0 µg/mL
same,Minimal Inhibitory Concentration (bioactivity data),F. necrophorum; strain FN4070,50.0
same,M.I.C.,F. necrophorum; strain FN5052,25.0 µg/mL
same,Minimal Inhibitory Concentration (bioactivity data),F. necrophorum; strain FN5052,50.0
same,M.I.C.,S. ruminantium; strain GA31,25.0 µg/mL
same,Minimal Inhibitory Concentration (bioactivity data),S. ruminantium; strain GA31,< 0.2
same,M.I.C.,S. ruminantium; strain GA192,> 100.0 µg/mL
same,Minimal Inhibitory Concentration (bioactivity data),S. ruminantium; strain GA192,< 0.2
same,M.I.C.,B. thetaiotaomicron; [2],< 0.2 µg/mL
same,Minimal Inhibitory Concentration (bioactivity data),B. thetaiotaomicron,50.0
same,M.I.C.,C. perfringens; strain 71A02,< 0.2 µg/mL
same,Minimal Inhibitory Concentration (bioactivity data),C. perfringens; strain 71A02,< 0.2
same,M.I.C.,C. perfringens; strain A82-1,0.8 µg/mL
same,Minimal Inhibitory Concentration (bioactivity data),C. perfringens; strain A82-1,12.5
same,M.I.C.,C. perfringens; strain A83-3,< 0.2 µg/mL
same,Minimal Inhibitory Concentration (bioactivity data),C. perfringens; strain A83-3,< 0.2
same,M.I.C.,C. perfringens; strain A83-RKP,0.4 µg/mL
same,Minimal Inhibitory Concentration (bioactivity data),C. perfringens; strain A83-RKP,< 0.2
same,M.I.C.,C. perfringens; strain CCS1-11,0.8 µg/mL
same,Minimal Inhibitory Concentration (bioactivity data),C. perfringens; strain CCS1-11,< 0.2
same,M.I.C.,C. perfringens; strain CCS2-09,< 0.2 µg/mL
same,Minimal Inhibitory Concentration (bioactivity data),C. perfringens; strain CCS2-09,< 0.2
same,M.I.C.,C. perfringens; strain P1051C3,12.5 µg/mL
same,Minimal Inhibitory Concentration (bioactivity data),C. perfringens; strain P1051C3,6.3
same,M.I.C.,C. perfringens; strain P1083C1,< 0.2 µg/mL
same,Minimal Inhibitory Concentration (bioactivity data),C. perfringens; strain P1083C1,0.8
same,M.I.C.,C. perfringens; strain RF1B04,< 0.2 µg/mL
same,Minimal Inhibitory Concentration (bioactivity data),C. perfringens; strain RF1B04,< 0.2
same,M.I.C.,C. perfringens; strain UC9452,< 0.2 µg/mL
same,Minimal Inhibitory Concentration (bioactivity data),C. perfringens; strain UC9452,0.8
same,M.I.C.,S. faecalis; strain 71A01,6.3 µg/mL
same,Minimal Inhibitory Concentration (bioactivity data),S. faecalis; strain 71A01,6.3
same,M.I.C.,S. faecalis; strain CCS1-03,1.6 µg/mL
same,Minimal Inhibitory Concentration (bioactivity data),S. faecalis; strain CCS1-03,3.1
same,M.I.C.,S. faecalis; strain P1051C4,1.6 µg/mL
same,Minimal Inhibitory Concentration (bioactivity data),S. faecalis; strain P1051C4,0.8
same,Minimal Inhibitory Concentration (bioactivity data),E. lentum,< 0.2
same,M.I.C.,L. multiparus; [2],< 0.2 µg/mL
same,Minimal Inhibitory Concentration (bioactivity data),L. multiparus,12.5
same,M.I.C.,B. fibrisolvens; strain 49,< 0.2 µg/mL
same,Minimal Inhibitory Concentration (bioactivity data),B. fibrisolvens; strain 49,0.4
same,M.I.C.,B. fibrisolvens; strain D1,< 0.2 µg/mL
same,Minimal Inhibitory Concentration (bioactivity data),B. fibrisolvens; strain D1,< 0.2
same,M.I.C.,R. flavefaciens; strain C94,6.3 µg/mL
same,Minimal Inhibitory Concentration (bioactivity data),R. flavefaciens; strain C94,0.8
same,M.I.C.,R. flavefaciens; strain FD1,< 0.2 µg/mL
same,Minimal Inhibitory Concentration (bioactivity data),R. flavefaciens; strain FD1,0.4
same,M.I.C.,S. bovis; [2],0.4 µg/mL
same,Minimal Inhibitory Concentration (bioactivity data),S. bovis,0.8
same,M.I.C.,M. elsdenii; [2],> 100.0 µg/mL
same,Minimal Inhibitory Concentration (bioactivity data),M. elsdenii,> 100
same,M.I.C.,R. amylophilus; [2],100.0 µg/mL
same,Minimal Inhibitory Concentration (bioactivity data),R. amylophilus,< 0.2
same,M.I.C.,E. ruminantium; [2],6.3 µg/mL
same,Minimal Inhibitory Concentration (bioactivity data),E. ruminantium,0.8
same,bioactivity relative to the 10381b antibiotic complex or the 10381b (10381b2) component,[1]; against a variety of microorganisms,increased antimicrobial activity; also recorded: about double
same,in vitro activity ranking of the individual components,[1],most active
same,Minimal Inhibitory Concentration (bioactivity data),S. hyodysenteriae; strain 16-4,> 100
same,Minimal Inhibitory Concentration (bioactivity data),S. hyodysenteriae; strain B204,> 100
same,M.I.C.,P. ruminicola; [2],< 0.2 µg/mL
same,Minimal Inhibitory Concentration (bioactivity data),P. ruminicola,< 0.2
